Results: publication PMC13126685, “Targeting Highly Reactive Oxygen Species (hROS) for Prodrug Activation through a Cascade Reaction with Kinetic Tunability (CReKT) to Effect Linker Cleavage” (Journal of Medicinal Chemistry, 2026)
Where two headings read alike, the source gives them in different places.

Columns and labels:
[1] = Cyclization kinetics of model thioethers and sulfoxides by RP-HPLC; assay type: physicochemical; details: for half-life at 200 μM: PBS, pH 7.4, 200 μM in PBS/DMSO (98:2); for half-life at 200 μM / cyclization, result in words: 37 °C, pH 7.4; for cyclization, result in words: 200 μM in PBS/DMSO (98:2)
Description: The basic premise of this ROS-sensitive prodrug strategy relies on two properties: (1) the substantial rate enhancement of the cyclization/condensation reaction after oxidation and (2) the ability for ROS to oxidize a thioether to sulfoxide rapidly, which we have recently extensively studied. To examine the first aspect, we studied the rate of cyclization of the thioethers (3a–3g) and sulfoxides (4a–4g) using RP-HPLC (Figure and Figures S1–S5). Briefly, 200 μM thioether or sulfoxide was incubated in PBS (containing 2% DMSO) at 37 °C. Aliquots of the reaction solution were sampled at designated time points for examination of the reaction kinetic profiles. As representative examples, the cases of thioether-sulfoxide pairs 3 a /4a (EWG: −CN), 3 e /4e (EWG: −CONH2), and 3 f /4f (EWG: −CONHC3H7) are described (Figure ). […] As a subsequent step, we were interested in the ability to tune the reaction kinetics and the magnitude of the reaction rate separation between the thioether and sulfoxide analogs. We are especially interested in searching for systems that offer a high degree of separation in reaction kinetics before and after thioether oxidation.
First, 10 mM stock solutions of compound 3 or 4 were prepared in DMSO. […] The resultant solution was kept at 37 °C. […] Either gradient method A or B was used to monitor the reaction.

[2] = ROS-triggered drug release from drug conjugates after oxidation by NaOCl (RP-HPLC); details: 100 μM conjugate, 150 μM NaOCl, 37 °C, pH 7.4, 20 min
Description: Specifically, to study drug release after oxidation by NaOCl, 100 μM of Flox-CReKT 12a was incubated with 150 μM sodium hypochlorite (NaOCl) in PBS (containing 1% DMF) under near-physiological conditions (Figure ). The reaction progress was monitored by RP-HPLC, where 20 μL of the incubated mixture was sampled and analyzed at designated time points (Figure ). Drug release t 1/2 was calculated by plotting the peak area of Flox released against time (Figure a). […] Specifically, oxidation of Flox-CReKT conjugate 12a is designed to lead to sulfoxide analogue 13a, which undergoes cyclization to release the Flox with the formation of the cyclized byproduct (6a) (Figure ).
We used the same protocol as discussed in the previous section of ROS-sensitive drug release to study the effect of pH. […] Furthermore, we used either a citrate- or PBS-based buffer to test the effect of pH on the oxidation step.
To monitor the drug release in the presence of ROS, drug conjugate 12 was incubated with ROS under near-physiological conditions. First, a 10 mM stock solution of the drug conjugate was prepared in DMF. Then, 10 μL was taken from the stock solution and added to 975 μL of the buffer. Then, 15 μL of 10 mM ROS solution was added to the solution. The resultant solution was kept at 37 °C. At different time points, 20 μL was taken from the reaction mixture and injected into HPLC.

[3] = tested on: RS4;11 cells; experiment: Cytotoxicity, CCK-8 assay; assay type: cell-based; details: Homo sapiens, RS4-11, 72 h
Description: To conduct this set of experiments, a 96-well plate (8 × 12) was used. First, RS4;11 cells were seeded in a 96-well plate 1 day before the experiment (RPMI-1640, containing 10% FBS and 1% PNS). Then, the cells were incubated with different concentrations of compounds with or without the stimulant. Specifically, the final concentrations of compounds were 0.1 pM–100 μM with or without H2O2 (25 μM) stimulation. The plate containing cells were incubated for 72 h at 37 °C with 5% CO2. The cell viability was tested using the CCK-8 assay. Specifically, after 72 h of incubation, 10 μL of the CCK-8 assay reagent was added to each well. Then, the plate was further incubated for 2 h. After that, the plate was gently shaken for 1 min, and then absorbance was recorded at 450 nm. The percentage cell viability was calculated using the following formula: cell viability (%) = ((A 450 of treated wells – A 450 of control wells)/(A 450 of no treatment wells – A 450 of control wells)) × 100. The experiment was conducted in triplicates.

[4] = Drug release / stability of drug conjugates in buffer in the absence of ROS (RP-HPLC); assay type: physicochemical; details: 100 μM, 37 °C
Description: Cellular compartments can have slightly different pH.
To monitor drug release in the absence of ROS, the same procedure of the model compound was followed with a small change of stock solution solvent. For drug conjugates 12, DMF was used to prepare the stock solution. Briefly, a 10 mM stock solution of the drug-conjugated compound was prepared in DMF. […] The resultant solution was kept at 37 °C.

[5] = set-up: method as in number not shown in text; details: ref number not shown in text; cited from earlier work
[6] = tested on: RAW264.7 cells; experiment: Intracellular ROS detection using DCFH-DA fluorescent probe; assay type: cell-based; details: 10 μM DCFH-DA, PMA 2 μM or LPS 2 μg/mL, 4 h, λex 495 nm, λem 530 nm
Description: To correlate the intracellular drug release, we also studied intracellular ROS formation upon stimulation with LPS or PMA or using RAW264.7 cells. We chose one of the widely used fluorescent probes, DCFH-DA, which is the diester version of DCFH capable of cellular penetration. − Subsequent hydrolysis of the ester groups would lead to DCFH, which is not readily cell membrane permeable and thus is trapped intracellularly. […] Similar to the intracellular payload release studies, we used RAW264.7 cells for intracellular ROS determination work. Briefly, 10 μM of DCFH-DA was incubated with and without LPS/PMA. Specifically, three groups were tested with the first being 10 μM of DCFH-DA only, the second being 10 μM of DCFH-DA and 2 μg/mL of LPS, and the third being 10 μM of DCFH-DA and 2 μM of PMA. The cells were incubated for 4 h before fluorescence measurements using a plate reader (λex 495 nm and λem 530 nm). […] Working solutions were prepared by dilution in DMEM (Fluorobright DMEM, containing 1% PNS). DCFH-DA (10 μM) was prepared by adding 4 μL of 10 mM DCFH-DA in 3.996 mL of media. DCFH-DA (10 μM) and LPS (2 μg/mL) were prepared by adding 4 μL of 10 mM DCFH-DA and 4 μL of 2 μg/μL of LPS in 3.994 mL of media. […] Subsequently, the plate was incubated 4 h before fluorescence measurements using a plate reader (λex 495 nm and λem 530 nm). […]

[7] = read-out: t 1/2 (thioether) (3a–g), cyclization (converted)
[8] = read-out: t 1/2 (sulfoxide) (4a–g), cyclization (converted)

COC(=O)c1ccccc1SCC#N [3a, Methyl 2-((Cyanomethyl)thio)benzoate]
half-life at 200 μM [1, 7]: 5 h

COC(=O)c1ccccc1SCC(F)(F)F [3b, Methyl 2-((2,2,2-Trifluoroethyl)thio)benzoate]
cyclization, result in words [1]: did not lead to cyclization | half-life at 200 μM [1, 7]: > 48 h

COC(=O)c1ccccc1SCC(=O)C(C)(C)C [3c, Methyl 2-((3,3-Dimethyl-2-oxobutyl)thio)benzoate]
half-life at 200 μM [1, 7]: 10 h

COC(=O)CSc1ccccc1C(=O)OC [3d, Methyl 2-((2-Methoxy-2-oxoethyl)thio)benzoate]
half-life at 200 μM [1, 7]: 6 h

COC(=O)c1ccccc1SCC(N)=O [3e, Methyl 2-((2-Amino-2-oxoethyl)thio)benzoate]
half-life at 200 μM [1, 7]: > 48 h

CCCNC(=O)CSc1ccccc1C(=O)OC [3f, Methyl 2-((2-Oxo-2-(propylamino)ethyl)thio)benzoate]
cyclization, result in words [1]: no cyclization | cyclization after 5 days, result in words ([1]; near-physiological conditions, 5 days): no significant cyclization

COC(=O)c1ccccc1SCC(=O)O [3g, 2-((2-(Methoxycarbonyl)phenyl)thio)acetic Acid]
cyclization, result in words [1]: cyclization did not happen | half-life at 200 μM [1, 7]: > 48 h

COC(=O)c1ccccc1[S+]([O-])CC#N (stereo not drawn) [4a, Methyl 2-((Cyanomethyl)sulfinyl)benzoate]
half-life at 200 μM [1, 8]: 0.667 h

COC(=O)c1ccccc1[S+]([O-])CC(F)(F)F (stereo not drawn) [4b, Methyl 2-((2,2,2-Trifluoroethyl)sulfiny)benzoate]
cyclization, result in words [1]: did not lead to cyclization | half-life at 200 μM [1, 8]: > 48 h

COC(=O)c1ccccc1[S+]([O-])CC(=O)C(C)(C)C (stereo not drawn) [4c, Methyl 2-((3,3-Dimethyl-2-oxobutyl)sulfinyl)benzoate]
half-life at 200 μM [1, 8]: 1.5 h

COC(=O)C[S+]([O-])c1ccccc1C(=O)OC (stereo not drawn) [4d, Methyl 2-((2-Methoxy-2-oxoethyl)sulfinyl)benzoate]
half-life at 200 μM [1, 8]: 0.667 h

COC(=O)c1ccccc1[S+]([O-])CC(N)=O (stereo not drawn) [4e, Methyl 2-((2-Amino-2-oxoethyl)sulfinyl)benzoate]
half-life at 200 μM [1, 8]: ~2.17 h

CCCNC(=O)C[S+]([O-])c1ccccc1C(=O)OC (stereo not drawn) [4f, Methyl 2-((2-Oxo-2-(propylamino)ethyl)sulfinyl)benzoate]
half-life at 200 μM [1, 8]: 7.5 h

COC(=O)c1ccccc1[S+]([O-])CC(=O)O (stereo not drawn) [4g, 2-((2-(Methoxycarbonyl)phenyl)sulfinyl)acetic Acid]
cyclization, result in words [1]: cyclization did not happen | half-life at 200 μM [1, 8]: > 48 h

N#CCSc1ccccc1C(=O)OC1CC(n2cc(F)c(=O)[nH]c2=O)OC1CO [12a, (2S,3R,5S)-5-(5-Fluoro-2,4-dioxo-3,4-dihydropyrimidin-1(2H)-yl)-2-(hydroxymethyl)tetrahydrofuran-3-yl 2-((Cyanomethyl)thio)benzoate]
Flox released at the 20 min time point [2]: 90%

CCCNC(=O)CSc1ccccc1C(=O)O[C@H]1C[C@H](n2cc(F)c(=O)[nH]c2=O)O[C@@H]1CO [12f, (2R,3S,5R)-5-(5-Fluoro-2,4-dioxo-3,4-dihydropyrimidin-1(2H)-yl)-2-(hydroxymethyl)tetrahydrofuran-3-yl 2-((2-Oxo-2-(propylamino)ethyl)thio)benzoate]
IC50 ([3]; + 25 μM H2O2): 202 ± 3 nM | IC50 ([3]; without H2O2): 197 ± 3 nM | stability in the absence of ROS for up to 72 h ([4]; pH 7.4, 72 h): remained intact

CCc1c2c(nc3ccc(OC(=O)c4ccccc4SCC(N)=O)cc13)-c1cc3c(c(=O)n1C2)COC(=O)[C@]3(O)CC [14e, (S)-4,11-Diethyl-4-hydroxy-3,14-dioxo-3,4,12,14-tetrahydro-1H-pyrano[3′,4’:6,7]indolizino[1,2-b]quinolin-9-yl 2-((2-Amino-2-oxoethyl)thio)benzoate]
SN-38 released within 24 h without oxidation ([4]; pH 7.4, 24 h): about 25%

O=C(O)c1ccccc1C1c2cc(Cl)c(O)cc2Oc2cc(O)c(Cl)cc21 [DCFH]
second-order rate constant of reaction with hypochlorite [5]: 580 ± 18 M^–1 s^–1

CCCCCCCCCCCCCC(=O)O[C@@H]1[C@@H](C)[C@@]2(O)[C@@H](C=C(CO)C[C@]3(O)C(=O)C(C)=C[C@@H]23)[C@@H]2C(C)(C)[C@]12OC(C)=O [PMA, phorbol 12-myristate 13-acetate]
fluorescence intensity of DCFH-DA probe upon stimulation (intracellular ROS) [6]: significantly higher fluorescence intensity

lipopolysaccharides [LPS]
fluorescence intensity of DCFH-DA probe upon stimulation (intracellular ROS) [6]: marginal increase
